Where two headings read alike, the source gives them in different places. One block for each molecule: values may come before it.
Experiments:
[1] = target: T1, PRPS2 (Homo sapiens, UniProt P11908); test: ATP consumption, Kinase-Glo; format: biochemical; conditions: 300 µM ATP, 300 µM R-5-P, 5 mM MgCl2, 5 mM Na3PO4, pH 7.5, 37 °C; allosteric effector
T1 construct: His-tagged, pET-28a, expressed in E. coli BL21, Ni-Sepharose purified; the AlphaFold id for docking (AF-P60891-F1) is that of PRPS1
T1 sequence (P11908 2-318): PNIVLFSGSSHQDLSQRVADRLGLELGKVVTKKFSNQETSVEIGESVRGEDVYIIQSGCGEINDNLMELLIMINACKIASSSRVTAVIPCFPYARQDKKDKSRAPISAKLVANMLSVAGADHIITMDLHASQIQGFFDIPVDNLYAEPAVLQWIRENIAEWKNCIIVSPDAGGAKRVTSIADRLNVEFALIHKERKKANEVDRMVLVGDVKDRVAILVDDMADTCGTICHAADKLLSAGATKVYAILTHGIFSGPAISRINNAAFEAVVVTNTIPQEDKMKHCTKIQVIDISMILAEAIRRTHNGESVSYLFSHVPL

[2] = target: T2, PRPS1 (Homo sapiens, UniProt P60891); test: ATP consumption, Kinase-Glo; format: biochemical; conditions: 300 µM ATP, 300 µM R-5-P, 5 mM MgCl2, 5 mM Na3PO4, pH 7.5, 37 °C; allosteric effector
T2 construct: His-tagged, pET-28a, expressed in E. coli BL21, Ni-Sepharose purified
T2 sequence (P60891 2-318): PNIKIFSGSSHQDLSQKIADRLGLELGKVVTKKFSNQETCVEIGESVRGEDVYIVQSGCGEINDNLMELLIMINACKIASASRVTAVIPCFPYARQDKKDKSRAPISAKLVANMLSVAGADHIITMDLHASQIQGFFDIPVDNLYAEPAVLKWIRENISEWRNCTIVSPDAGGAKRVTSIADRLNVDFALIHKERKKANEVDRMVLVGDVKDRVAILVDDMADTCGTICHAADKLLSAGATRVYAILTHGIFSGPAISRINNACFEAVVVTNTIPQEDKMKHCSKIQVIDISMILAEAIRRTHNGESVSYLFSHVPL

[3] = target: T2, PRPS1; test: biochemical; parameters: PRPS1/2 activity by ATP consumption, Kinase-Glo luminescence
[4] = target: T1, PRPS2; test: biochemical; parameters: PRPS1/2 activity by ATP consumption, Kinase-Glo luminescence
[5] = test system: T3, HeLa Tet-on EcSTH-LbNOX; test: cells; parameters: Sensitivity of HeLa cells to menadione, proliferation after 48 h; conditions: Homo sapiens, 48 h, Dox-, read-out: IC50 menadione
T3 construct: HeLa with inducible Tet-on EcSTH-LbNOX, not induced

[6] = test system: T4, HeLa Tet-on EcSTH; test: cells; parameters: Sensitivity of HeLa cells to menadione, proliferation after 48 h; conditions: Homo sapiens, 48 h, Dox-, read-out: IC50 menadione
T4 construct: HeLa with inducible Tet-on EcSTH, not induced
Procedure: From top to bottom: **P < 0.0001, **P < 0.0001, **P < 0.0001, two-way ANOVA. d Effects of EGFP, EcSTH, LbNOX, or EcSTH-LbNOX expression on colony formation in HeLa cells cultured with Dox, as indicated, for 10 days (n = 3 biologically independent samples). From left to right: *P = 0.013, **P = 0.0001, **P = 6.58e-07, two-tailed Student’s t-tests. e The in vivo tumor growth of HeLa cells expressing inducible Tet-on EcSTH or EcSTH-LbNOX (n = 5 biologically independent animals). 2 mg/mL Dox was added in drinking water on day 10 and updated every two days. **P < 0.0001, two-way ANOVA. f Effects of α-KB treatment on proliferation of HeLa^Tet-on EcSTH cells. Cells were counted after treatment with Dox (1 µg/mL) and α-KB (1 or 2 mM) for 48 h (n = 4 biologically independent samples). From left to right: **P = 2.44e-06, **P = 1.85e-06, two-tailed Student’s t-tests. g Effects of inhibitors on proliferation of HeLa^Tet-on EcSTH cells. Cells were pretreated with the indicated inhibitors for 2 h, and cells were counted after treatment with Dox (1 µg/mL) for 48 h (n = 3 biologically independent samples). z-VAD (z-VAD-FMK, 20 µM), NSA (necrosulfonamide, 10 µM), Ferr-1 (Ferrostain-1, 5 µM). […] Cell apoptosis was measured by Flow cytometry after treatment with Dox (1 µg/mL) and α-KB (2 mM) for 24 h (n = 3 biologically independent samples). […]

[7] = test system: T5, EcSTH-LbNOX; test: thio-NAD+ reduction at […] nm / NADPH depletion at […] nm; format: biochemical, Escherichia coli; conditions: 50 mM Tris-HCl pH 7.5, 10 μM FAD, 35 °C, EcSTH site
T5 construct: gene sthA; single-chain fusion EcSTH-Flag-LbNOX, three tandem Flag peptides as linker, expressed in HeLa cells, anti-Flag M2 purified; with NADH oxidase (water-forming)

[8] = target: T1, PRPS2; test: SPR (Biacore T200), His-PRPS2 immobilized on CM5 chip; format: binding; conditions: read-out: dissociation constant
[9] = substrate: NC(=O)C1=CN([C@@H]2O[C@H](COP(=O)(O)OP(=O)(O)OC[C@H]3O[C@@H](n4cnc5c(N)ncnc54)[C@H](OP(=O)(O)O)[C@@H]3O)[C@@H](O)[C@H]2O)C=CC1; test: purified protein; format: biochemical, Escherichia coli; conditions: 400 µM thio-NAD+, 50 mM Tris-HCl pH 7.5, 10 μM FAD, 35 °C
[10] = substrate: NC(=S)c1ccc[n+]([C@@H]2O[C@H](COP(=O)(O)OP(=O)(O)OC[C@H]3O[C@@H](n4cnc5c(N)ncnc54)[C@H](O)[C@@H]3O)[C@@H](O)[C@H]2O)c1; test: purified protein; format: biochemical, Escherichia coli; conditions: 400 µM NADPH, 50 mM Tris-HCl pH 7.5, 10 μM FAD, 35 °C
[11] = substrate: NC(=O)C1=CN([C@@H]2O[C@H](COP(=O)(O)OP(=O)(O)OC[C@H]3O[C@@H](n4cnc5c(N)ncnc54)[C@H](O)[C@@H]3O)[C@@H](O)[C@H]2O)C=CC1; test: purified protein; conditions: 50 mM Tris-HCl pH 7.5, 10 μM FAD, 35 °C

Molecule: CC1=CC(=O)c2ccccc2C1=O [Menadione]
IC50 [5]: 27.4 µM
IC50 [6]: 27.8 µM

Molecule: NC(=O)C1=CN([C@@H]2O[C@H](COP(=O)(O)OP(=O)(O)OC[C@H]3O[C@@H](n4cnc5c(N)ncnc54)[C@H](OP(=O)(O)O)[C@@H]3O)[C@@H](O)[C@H]2O)C=CC1 [NADPH]
Km ([7]; 400 µM thio-NAD+): 194 µM

B1: EcSTH (Escherichia coli K-12) (protein)
chain: PHSYDYDAIVIGSGPGGEGAAMGLVKQGARVAVIERYQNVGGGCTHWGTIPSKALRHAVSRIIEFNQNPLYSDHSRLLRSSFADILNHADNVINQQTRMRQGFYERNHCEILQGNARFVDEHTLALDCPDGSVETLTAEKFVIACGSRPYHPTDVDFTHPRIYDSDSILSMHHEPRHVLIYGAGVIGCEYASIFRGMDVKVDLINTRDRLLAFLDQEMSDSLSYHFWNSGVVIRHNEEYEKIEGCDDGVIMHLKSGKKLKADCLLYANGRTGNTDSLALQNIGLETDSRGQLKVNSMYQTAQPHVYAVGDVIGYPSLASAAYDQGRIAAQALVKGEATAHLIEDIPTGIYTIPEISSVGKTEQQLTAMKVPYEVGRAQFKHLARAQIVGMNVGTLKILFHRETKEILGIHCFGERAAEIIHIGQAIMEQKGGGNTIEYFVNTTFNYPTMAEAYRVAALNGLNRLF
notes: C-terminal Flag tag (EcSTH-Flag), human-codon cDNA, expressed in HeLa cells, anti-Flag M2 purified
Km [9]: 137.1 µM
kcat [9]: 81.73 s⁻¹
Km [10]: 242.8 µM
kcat [10]: 82.73 s⁻¹

B2: LbNOX (Levilactobacillus brevis ATCC 367) (protein)
chain: MKVTVVGCTHAGTFAIKQILAEHPDAEVTVYERNDVISFLSCGIALYLGGKVADPQGLFYSSPEELQKLGANVQMNHNVLAIDPDQKTVTVEDLTNHAQTTESYDKLVMTSGSWPIVPKIPGIDSDRVKLCKNWAHAQALIEDAKEAKRITVIGAGYIGAELAEAYSTTGHDVTLIDAMARVMPKYFDADFTDVIEQDYRDHGVQLALGETVESFTDSATGLTIKTDKNSYETDLAILCIGFRPNTDLLKGKVDMAPNGAIITDDYMRSSNPDIFAAGDSAAVHYNPTHQNAYIPLATNAVRQGILVGKNLVKPTVKYMGTQSSSGLALYDRTIVSTGLTLAAAKQQGLNAEQVIVEDNYRPEFMPSTEPVLMSLVFDPDTHRILGGALMSKYDVSQSANTLSVCIQNENTIDDLAMVDMLFQPNFDRPFNYLNILAQAAQAKVAQSVNA
Km [11]: 88.73 µM
kcat [11]: 836.55 s⁻¹

More lines, main results first:

IC50 ([3]; read-out: IC50 of GDP (PRPS1)): 171 µM
IC50 ([4]; read-out: IC50 of GDP (PRPS2)): 251 µM
Molecule: Nc1nc2c(ncn2[C@@H]2O[C@H](COP(=O)(O)OP(=O)(O)O)[C@@H](O)[C@H]2O)c(=O)[nH]1 [GDP]
ATP consumption, Kinase-Glo [1]: protected PRPS2 against inhibition by ADP, but not against that by GDP
ATP consumption, Kinase-Glo [2]: NADH and NAD^+ exerted no effect on the suppression of PRPS1 by ADP or GDP

IC50 ([3]; read-out: IC50 of ADP (PRPS1)): 41.3 µM
IC50 ([4]; read-out: IC50 of ADP (PRPS2)): 77.4 µM
Molecule: Nc1ncnc2c1ncn2[C@@H]1O[C@H](COP(=O)(O)OP(=O)(O)O)[C@@H](O)[C@H]1O [ADP]

Kd [8]: 118 µM
Molecule: NC(=O)C1=CN([C@@H]2O[C@H](COP(=O)(O)OP(=O)(O)OC[C@H]3O[C@@H](n4cnc5c(N)ncnc54)[C@H](O)[C@@H]3O)[C@@H](O)[C@H]2O)C=CC1 [NADH]

Km ([7]; 400 µM NADPH): 272 µM
Molecule: NC(=S)c1ccc[n+]([C@@H]2O[C@H](COP(=O)(O)OP(=O)(O)OC[C@H]3O[C@@H](n4cnc5c(N)ncnc54)[C@H](O)[C@@H]3O)[C@@H](O)[C@H]2O)c1 [thio-NAD^+]

Reference: article PMC9672040, “Identification of purine biosynthesis as an NADH-sensing pathway to mediate energy stress” (Nature Communications, 2022)
